Assay [1] has as its target T1, QR2 (Homo sapiens, UniProt P16083).
T1 sequence (P16083 1-231): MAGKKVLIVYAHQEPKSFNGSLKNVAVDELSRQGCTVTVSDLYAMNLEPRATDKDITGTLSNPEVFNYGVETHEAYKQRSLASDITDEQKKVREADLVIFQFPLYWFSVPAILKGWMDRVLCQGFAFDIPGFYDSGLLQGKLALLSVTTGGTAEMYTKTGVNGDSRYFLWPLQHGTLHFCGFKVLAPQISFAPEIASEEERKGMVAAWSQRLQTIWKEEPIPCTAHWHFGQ
Nature of the assay: QR2 activity assay with recombinant QR2 (Example 2). The assay is classed as biochemical. Details: GST (N, cleaved yes); made in house; E. coli only by inference. The conditions noted are these: recombinant QR2; 50 μM NMeH, 5-30 μM menadione; read-out: QR2 K1 (μM) ± SEM. As to the method: Cloning of human QR2. Human QR2 was PCR amplified from human liver cDNA (Clontech) with the following primers: 5′[…]-3′ and 5′-[…]-3′ and cloned into the pGEX-4T-2 GST expression vector (Pharmacia). GST-tagged QR2 was purified and the GST tag removed according to the manufacturers instructions.
ALDH1, QR2 and QR1 activity assays. […] Reaction products were separated with a gradient of acetonitrile in 10 mM triethylamine acetic acid. […] QR1 IC50 values were calculated using GraphPad Prism.

In assay [2] the target is T1, QR2. Nature of the assay: hQR2 activity assay, enzyme purified from human RBC (Example 1). Details: Pure hALDH was eluted with 5 mM NADH and pure hQR2 with 5 mM NMeN; tissue Valley Biomedical (blood); host or cells: human red blood cells. The assay is classed as biochemical. The conditions noted are these: purified hQR2 from human RBC; menadione substrate; read-out: Kd(app). The method, then: ATP-affinity array chromatography. In whole mouse experiments, the animal (except for its tail, feet, skin and intestines) was frozen in liquid N2 and blended in buffer A containing 50 mM Hepes, pH 7.5, 50 mM NaCl, 10 mM MgCl2, 0.1% NONIDET- P40, 1 mM dithiothreitol, 1 μg/ml leupeptin, 100 μg/ml pefabloc and 10 μg/ml aprotinin. Mouse lysate was clarified by centrifugation for 1 hr at 100,000×g. For infected and non-infected RBC's˜1.5×10^9 cells were mixed with an equal volume of 2×buffer A, rocked for 30 min at 4° C., and clarified by centrifugation for 1 hr at 100,000×g. Supernatants were dialyzed overnight against 50 mM Hepes, pH 7.5, 50 mM NaCl, 10 mM MgCl2 and 1 mM dithiothreitol. […] Lysates were centrifuged twice at 125,000×g for 1 hr at 4° C. […] Pure hALDH was eluted with 5 mM NADH and pure hQR2 with 5 mM NMeN. The eluants were dialyzed overnight at 4° C. against 25 mM Tris pH 8.0 and 1 mM DTT. hALDHl was assayed as described in Table 2. Purified hQR2 was assayed at 22° C. in 100 μM N-methyldihydronicotinamide, 30 μM menadione, 0.1% Triton X-100, 50 mM Tris pH 8.5, 100 μM dicoumarol (unless stated otherwise).
For QR2 Kd apparent values determined using the expression [formula]
The Kd was determined as [formula]
Where Ao=rate in the absence of drug; Aapp=rate+drug; [M]=concentration of menadione.

Turning to `CCN(CC)CCCC(C)Nc1ccnc2cc(Cl)ccc12` (centres unmarked) [CQ, chloroquine], the Ki in assay [1] was 0.61 ± 0.1 µM. Moreover, the Kd in assay [2] is 24 µM.

For the origin of these results see patent US20030143645A1, “Quinone reductase 2 and aldehyde dehydrogenase as therapeutic targets” (priority 2001, published 2003).
